# How the values were obtained:
# Experiment in all cases: relative viability (nuclei count vs DMSO), 5 days (fraction); higher = more cells survive
# [1] = compound: C1CSC2=C(C(=O)N1)SC3=C2C=C(C=C3)O [kb NB 142-70] + Nc1nc2[nH]cc(CCc3ccc(C(=O)N[C@@H](CCC(=O)O)C(=O)O)cc3)c2c(=O)[nH]1 [Pemetrexed] (partner 0.2 µM)
# Outline: (§1)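 Dosing by pin tool came one day after lung cancer cell lines were seeded in 1536-well plates, using either one drug or a fixed anchor-drug dose plus five library-drug doses (not always all listed) in √10 steps. After 5 days, nuclei were counted on 4× images. Relative viability is treated-well nuclei count divided by vehicle-well nuclei count, and values are medians of duplicate plates.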
# kb NB 142-70 + Olaparib = compound: C1CSC2=C(C(=O)N1)SC3=C2C=C(C=C3)O [kb NB 142-70] + O=C(c1cc(Cc2n[nH]c(=O)c3ccccc23)ccc1F)N1CCN(C(=O)C2CC2)CC1 [Olaparib] (partner 8 µM)
# Outline: as §1
# kb NB 142-70 + Dasatinib = compound: C1CSC2=C(C(=O)N1)SC3=C2C=C(C=C3)O [kb NB 142-70] + Cc1nc(Nc2ncc(C(=O)Nc3c(C)cccc3Cl)s2)cc(N2CCN(CCO)CC2)n1 [Dasatinib] (partner 0.075 µM)
# Outline: as §1
# [2] = compound: NCC(=O)Nc1ccc(-n2nc(C(F)(F)F)cc2-c2ccc3c(ccc4ccccc43)c2)cc1 + CS(=O)(=O)CCNCc1ccc(-c2ccc3ncnc(Nc4ccc(OCc5cccc(F)c5)c(Cl)c4)c3c2)o1 [Lapatinib] (partner 2 µM)
# Outline: as §1
# [3] = compound: NCC(=O)Nc1ccc(-n2nc(C(F)(F)F)cc2-c2ccc3c(ccc4ccccc43)c2)cc1 + C[C@@H](Oc1cc(-c2cnn(C3CCNCC3)c2)cnc1N)c1c(Cl)ccc(F)c1Cl [Crizotinib] (partner 1 µM)
# Outline: as §1
Cell Line,relative viability ([1]; first compound 0.1 µM),relative viability ([1]; first compound 1 µM),relative viability ([1]; first compound 3.162 µM),relative viability (kb NB 142-70 + Olaparib; first compound 0.1 µM),relative viability (kb NB 142-70 + Olaparib; first compound 1 µM),relative viability (kb NB 142-70 + Olaparib; first compound 3.162 µM),relative viability (kb NB 142-70 + Dasatinib; first compound 0.1 µM),relative viability (kb NB 142-70 + Dasatinib; first compound 1 µM),relative viability (kb NB 142-70 + Dasatinib; first compound 3.162 µM),relative viability ([2]; first compound 0.02 µM),relative viability ([2]; first compound 0.06325 µM),relative viability ([2]; first compound 0.2 µM),relative viability ([2]; first compound 0.6325 µM),relative viability ([2]; first compound 2 µM),relative viability ([3]; first compound 0.02 µM),relative viability ([3]; first compound 0.06325 µM),relative viability ([3]; first compound 0.2 µM),relative viability ([3]; first compound 0.6325 µM),relative viability ([3]; first compound 2 µM)
NCI-H1648,0.731,0.763,0.932,0.645,0.707,0.738,,,,,,,,,,,,,
SK-MES-1,1,1.11,0.548,0.719,0.484,0.181,0.422,0.49,0.337,0.485,0.403,0.546,0.455,0.46,1.04,0.994,1.04,0.979,1.03
HCC-366,0.182,0.214,0.34,0.371,0.509,0.443,0.634,0.498,0.378,1.04,1.07,1.12,0.997,0.698,0.558,0.589,0.55,0.736,0.456
201T,0.315,0.349,0.318,0.828,0.87,0.85,0.596,0.47,0.565,1.04,1.07,0.996,1.08,1.04,1.02,1.02,1.01,1.03,0.984
HCC-827,0.25,0.243,0.267,0.655,0.62,0.404,0.265,0.295,0.445,0.178,0.201,0.172,0.199,0.23,0.988,1.04,0.966,0.929,0.937
NCI-H647,0.186,0.192,0.178,0.549,0.495,0.539,0.185,0.189,0.119,1.2,1.07,1.21,0.953,0.631,1.17,1.14,1.13,0.976,0.747
NCI-H2023,0.253,0.283,0.221,0.51,0.504,0.312,0.51,0.536,0.5,0.747,1.2,0.476,0.838,0.74,0.737,0.751,0.619,0.703,0.702
NCI-H520,0.765,0.667,0.375,0.377,0.35,0.228,0.168,0.197,0.173,0.995,0.869,0.935,0.938,0.963,0.787,1.09,0.889,0.687,0.694
RERF-LC-KJ,0.461,0.477,0.417,1.03,1.01,0.675,0.834,0.872,0.752,0.955,0.828,0.909,0.891,0.82,0.867,0.845,0.847,0.791,0.809
A-427,0.886,1.01,0.873,0.747,0.77,0.52,0.8,0.612,0.607,1.08,1.11,1.14,1.04,1.11,0.87,0.848,1.04,0.935,0.865
NCI-H441,0.269,0.248,0.196,0.631,0.533,0.22,0.634,0.575,0.366,,,,,,1.08,0.666,0.73,0.6,0.749
NCI-H1703,,,,0.47,0.387,0.455,,,,1.03,1.09,1.41,0.964,1.04,0.593,0.657,0.924,0.621,0.951
NCI-H1792,0.862,0.828,1.13,0.406,0.547,0.619,0.757,0.816,0.769,1,0.948,0.918,0.933,0.857,1.01,1.02,0.976,1,0.945
Calu-6,,,,0.589,0.457,0.287,,,,0.969,1.12,1.19,1.16,0.963,0.862,0.854,0.853,0.838,0.774
SK-LU-1,0.958,0.954,0.412,0.423,0.396,0.271,0.176,0.163,0.119,0.87,0.841,0.887,0.905,0.929,0.854,0.949,1.11,0.831,1.03
PC-3 [JPC-3],1.11,1,0.559,1.12,1.25,1.15,0.94,1.05,1.02,0.411,0.458,0.428,0.444,0.528,1.01,1.03,0.996,0.959,0.99
EMC-BAC-2,0.438,0.483,0.451,0.531,0.505,0.384,0.363,0.305,0.235,0.859,0.925,0.903,0.9,0.891,0.737,0.763,0.797,0.712,0.765
LK-2,0.327,0.215,0.224,0.822,0.551,0.323,0.231,0.231,0.229,0.966,1.06,0.884,1,0.874,0.247,0.234,0.232,0.236,0.244

# — the supplement of paper PMC10307832
